Values of other authors in patent US20110177137A1, “NOVEL DOSAGE FORM OF PALIPERIDONE AND PROCESS FOR PREPARING THE SAME” (INTAS PHARMACEUTICALS LIMITED, priority 2008, published 2011).

solubility in 0.1 N HCl (0.1 N HCl): soluble | solubility in methyl chloride (methyl chloride): partly soluble | solubility in water (water): insoluble
SMILES: Cc1nc2n(c(=O)c1CCN1CCC(c3noc4cc(F)ccc34)CC1)CCCC2O (stereo not drawn) [Paliperidone]
